# Results taken from patent US20080194585A1, “Fungicidal Pyrazine Derivatives” (priority 2005, published 2008).
# Marks after values point to notes of the source that are not given here.
# How the values were obtained:
# Settings in all cases: 100 = 100% disease control, 0 = no control
# Plasmopara viticola = test: Test D: grape downy mildew, spray after inoculation of grape seedlings; format: in vivo
# From the text: Upon removal, disease ratings were made. […] A dash (-) indicates no test results.
# Rhizoctonia oryzae = test: Test G: turf brown patch, preventive spray on creeping bent grass seedlings
# Method: (the causal agent of turf brown patch) and incubated in a saturated atmosphere at 27° C. for 24 h, and then moved to a growth chamber at 27° C. for 5 days, after which disease ratings were made.
# [1] = test system: Colletotrichum orbiculare; test: Test B: cucumber Colletotrichum anthracnose, preventive spray on cucumber seedlings
# [2] = test system: Erysiphe graminis f. sp. tritici; test: Test L: wheat powdery mildew, preventive spray on wheat seedlings
# Septoria nodorum = test: Test H: wheat glum blotch, preventive spray on wheat seedlings
# Method: (the causal agent of wheat glum blotch) and incubated in a saturated atmosphere at 20° C. for 48 h, and then moved to a growth chamber at 22° C. for 5 days, after which disease ratings were made.
# Botrytis cinerea = test: Test E: tomato botrytis, preventive spray on tomato seedlings
# Pythium aphanidermatum = test: Test A: bluegrass pythium blight, preventive spray on bluegrass seedlings
# Septoria tritici = test: Test J: wheat leaf blotch, preventive spray on wheat seedlings; format: in vivo
# From the text: A dash (-) indicates no test results.
# Phytophthora infestans = test: whole plant or invertebrate; format: in vivo
# [3] = test system: Puccinia recondita f. sp. tritici; test: Test K: wheat leaf rust, preventive spray on wheat seedlings
# fusarium graminearium = test: Test I: wheat head scab, preventive spray on wheat seedlings
# Method: (the causal agent of wheat head scab) and incubated in a saturated atmosphere at 20° C. for 72 h, and then moved to a growth chamber at 22° C. for 5 days, after which disease ratings were made.
SMILES,Test D disease control rating (Plasmopara viticola; 200 ppm) [%],Test G disease control rating (Rhizoctonia oryzae; 40 ppm (marked *)),Test B disease control rating ([1]; 40 ppm (marked *)),Test L disease control rating ([2]; 40 ppm (marked *)),Test H disease control rating (Septoria nodorum; 40 ppm (marked *)),Test E disease control rating (Botrytis cinerea; 40 ppm (marked *)),Test A disease control rating (Pythium aphanidermatum; 200 ppm) [%],Test J disease control rating (Septoria tritici; 40 ppm (marked *)),Test F disease control rating (Phytophthora infestans; 200 ppm) [%],Test K disease control rating ([3]; 40 ppm (marked *)),Test I disease control rating (fusarium graminearium; 200 ppm) [%],other results
O=c1c(-n2cccn2)nc(Cl)c(-c2c(F)cc(F)cc2F)n1Cc1ccccc1Br [compound 345],0,31* %,88* %,88* %,99* %,98* %,0,100* %,0,100* %,91,–
O=c1c(-n2cccn2)nc(Cl)c(-c2c(F)cc(F)cc2F)n1Cc1ccc(C(F)(F)F)cc1 [compound 346],0,0* %,0* %,0* %,0* %,0* %,0,13* %,0,74* %,0,–
O=c1c(-n2cccn2)nc(Cl)c(-c2c(F)cc(F)cc2F)n1Cc1cccc(C(F)(F)F)c1 [compound 347],0,0* %,0* %,25* %,0* %,0* %,0,83* %,0,93* %,0,–
O=c1c(-n2cccn2)nc(Cl)c(-c2c(F)cc(F)cc2F)n1Cc1ccccc1C(F)(F)F [compound 348],0,16* %,0* %,44* %,64* %,90* %,0,99* %,0,97* %,0,–
CCC(C)Cn1c(-c2c(F)cccc2F)c(Cl)nc(C(=O)NCCO)c1=O (stereo not shown) [compound 349],0,0* %,0* %,0* %,0* %,0* %,0,25* %,0,96* %,0,–
CC(C)Cn1c(-c2c(F)cccc2F)c(Cl)nc(-c2cnccn2)c1=O [compound 350],0,–,–,–,–,–,80,–,0,–,80,Test G disease control rating (Rhizoctonia oryzae; 200 ppm): 99%; Test B disease control rating ([1]; 200 ppm): 0%; Test L disease control rating ([2]; 200 ppm): 86%; Test H disease control rating (Septoria nodorum; 200 ppm): 98%; Test E disease control rating (Botrytis cinerea; 200 ppm): 98%; Test J disease control rating (Septoria tritici; 200 ppm): 85%; Test K disease control rating ([3]; 200 ppm): 99%
O=c1c(-n2cccn2)nc(Cl)c(-c2c(F)cc(F)cc2F)n1-c1cccc(Br)c1 [compound 351],0,0* %,99* %,100* %,99* %,99* %,0,100* %,0,100* %,78,–
O=c1c(-n2cccn2)nc(Cl)c(-c2c(F)cc(F)cc2F)n1-c1ccc(Br)cc1 [compound 352],0,31* %,99* %,81* %,97* %,99* %,0,100* %,0,99* %,63,–
O=c1c(-n2cccn2)nc(Cl)c(-c2c(F)cc(F)cc2F)n1-c1cccc(C(F)(F)F)c1 [compound 353],0,0* %,16* %,79* %,98* %,98* %,0,100* %,0,91* %,0,–
O=c1c(-n2cccn2)nc(Cl)c(-c2c(F)cc(F)cc2F)n1-c1ccc(C(F)(F)F)cc1 [compound 354],0,47* %,9* %,48* %,91* %,95* %,0,100* %,0,97* %,0,–
Cc1nc(-c2ccccn2)c(=O)n(-c2ccccc2)c1-c1c(F)cccc1F [compound 359],–,0* %,0* %,0* %,0* %,0* %,–,85* %,–,0* %,–,Test D disease control rating (Plasmopara viticola; 40 ppm (marked *)): 8* %; Test A disease control rating (Pythium aphanidermatum; 40 ppm (marked *)): 81* %; Test F disease control rating (Phytophthora infestans; 40 ppm (marked *)): 0* %; Test I disease control rating (fusarium graminearium; 40 ppm (marked *)): 65* %
O=c1c(-n2cccn2)nc(Cl)c(-c2c(F)cccc2F)n1-c1ccccc1Br [compound 360],0,65* %,0* %,99* %,100* %,99* %,0,100* %,0,100* %,86,–
O=c1c(-n2cccn2)nc(Cl)c(-c2c(F)cccc2F)n1C1CC1 [compound 361],0,31* %,0* %,0* %,98* %,92* %,0,3* %,0,83* %,0,–
O=c1c(-n2cccn2)nc(Cl)c(-c2c(F)cccc2F)n1C1CC1c1ccccc1 (stereo not shown) [compound 362],0,0* %,0* %,0* %,0* %,0* %,0,0* %,0,0* %,0,–
O=c1c(-n2cccn2)nc(Cl)c(-c2c(F)cccc2F)n1C1CCC1 [compound 363],0,93* %,0* %,99* %,100* %,99* %,0,59* %,0,100* %,0,–
CC(C)Cn1c(-c2c(F)cccc2F)c(Cl)nc(-c2cnccn2)c1=O.Cl [compound 364],0,16* %,0* %,88* %,0* %,99* %,0,0* %,0,92* %,82,–
O=c1c(-n2cccn2)nc(Cl)c(-c2c(F)cc(F)cc2F)n1-c1cccc(Cl)c1 [compound 373],–,93* %,99* %,100* %,99* %,100* %,–,96* %,–,100* %,–,Test D disease control rating (Plasmopara viticola; 40 ppm (marked *)): 0* %; Test A disease control rating (Pythium aphanidermatum; 40 ppm (marked *)): 0* %; Test F disease control rating (Phytophthora infestans; 40 ppm (marked *)): 0* %; Test I disease control rating (fusarium graminearium; 40 ppm (marked *)): 78* %
